These results are taken from patent EP0021678B1, “1-Sulpho-2-oxoazetidine derivatives, their production and pharmaceutical compositions thereof” (Takeda Chemical Industries, Ltd., priority 1979, dated 1981).

Assay in all cases: Anti-bacterial test, minimum inhibitory concentration on agar
Common to all, as to type: cell-based

The subject of assay [1] is Staphylococcus aureus FDA209P. The following applies: Staphylococcus aureus FDA209P. An excerpt:
(§1) The compound (I) thus obtained is useful as a drug, being active against certain gram-positive and gram-negative bacteria. By way of example, the compounds are active against the following micro-organisms.
(§2) The media and compounds employed in the anti-bacterial test are as follows: • Media: • TSA = Trypticase soy agar • [Baltimore Biologicals (U.S.A.)] • B-TSA = Blood trypticase soy agar • Compounds: • Compound A = Sodium 3-[2-(2-amino-4-thiazolyl)-2-methoxyiminoacetamido]-2-oxo-azetidine-1-sulphonate • Compound B = Sodium 3-[D(-)-N-(4-ethyl-2,3-dioxo-1-piperazinocarbonyl)-phenyl-glycin- amido]-2-oxoazetidine-1-sulphonate • Compound C = Sodium 3-[D(-)-N-(4-ethyl-2,3-dioxo-1-piperazinocarbonyl)phenylglycinamido]-3-methoxy-2-oxoazetidine-1-sulphonate • Compound D = Sodium 3-[2-(4-ethyl-2,3-dioxo-1-piperazinocarboxamido)-2-(2-amino-4-thiazolyl)-acetamido]-2-oxoazetidine-1-sulphonate • Compound E = Sodium 3-[DL-2-(4-ethyl-2,3-dioxo-1-piperazinocarboxamido)-2-thienylacetamido]-2-oxoazetidine-1-sulphonate • Compound F = Sodium 3-[D-2-(4-ethyl-2,3-dioxo-1-piperazinocarboxamido)-2-thienylacetamido]-2-oxoazetidine-1-sulphonate • Compound G = Sodium 3-[D-2-(4-n-octyl-2,3-dioxo-1-piperazinocarboxamido)-2-phenylacetamido]-2-oxoazetidine-1-sulphonate • Compound H = Sodium 3-[2-(4-n-octyl-2,3-dioxo-1-piperazinocarboxamido)-2-(2-amino-4-thiazolyl)-acetamido]-2-oxoazetidine-1-sulphonate • Compound I = Sodium 3-[D-2-[(2-oxo-3-furfurylideneaminoimidazolidin-1-yl)-carboxamido]-2-phenylacetamido]-2-oxoazetidine-1-sulphonate • Compound J = Sodium 3-[2-(4-n-octyl-2,3-dioxo-1-piperazinocarboxamido)-2-thienylacetamido]-2-oxoazetidine-1-sulphonate • Compound K = Sodium 3-[D-2-[[2-oxo-3-(thiophen-2-aidoimino)-imidazolidin-1-yl]-carboxamido]-2-phenylacetamido]-2-oxoazetidine-1-sulphonate • Compound L = Sodium 3-[2-[(2-oxo-3-furfurylideneaminoimidazolidin-1-yl)-carboxamido]-2-thienylacetamido]-2-oxoazetidine-1-sulphonate

Assay [2] concerns Proteus mirabilis IFO 3849. The following applies: Proteus mirabilis IFO 3849, medium TSA.
Text: as §1, §2

In assay [3] the test system is Serratia marcescens IFO 12648. The following applies: Serratia marcescens IFO 12648, medium TSA.
Text: as §1, §2

For the next assay, the system named is Escherichia coli O—111. The following applies: medium TSA.
Text: as §1, §2

Assay [4] relates to Streptococcus pyogenes E—14. The following applies: Streptococcus pyogenes E—14, medium B—TSA.
Text: as §1, §2

Another assay has as its system Candida albicans TA. The following applies: Candida albicans TA, medium TSA.
Text: as §1, §2

Assay [5] has as its system Escherichia coli NIHJ JC—2. The following applies: Escherichia coli NIHJ JC—2, medium TSA.
Text: as §1, §2

Assay [6] deals with Proteus morganii IFO 3168. The following applies: Proteus morganii IFO 3168, medium TSA.
Text: as §1, §2

The test system of the next assay is Klebsiella pneumoniae DT. The following applies: for Minimum inhibitory concentration: Klebsiella pneumoniae DT, medium TSA.
Text: as §1, §2

For assay [7], the system named is Corynebacterium diphtheriae Toronto. The following applies: Corynebacterium diphtheriae Toronto, medium B—TSA.
Text: as §1, §2

The test system of assay [8] is Enterobacter cloacae IFO 12937. The following applies: Enterobacter cloacae IFO 12937, medium TSA.
Text: as §1, §2

Assay [9] concerns Proteus vulgaris IFO 3988. The following applies: for Minimum inhibitory concentration: Proteus vulgaris IFO 3988, medium TSA.
Text: as §1, §2

Assay [10] has as its system Pseudomonas aeruginosa U 31. The following applies: Pseudomonas aeruginosa U 31, medium TSA.
Text: as §1, §2

In assay [11] the test system is Streptococcus pyogenes S—8. The following applies: Streptococcus pyogenes S—8, medium B—TSA.
Text: as §1, §2

The test system of assay [12] is Pseudomonas aeruginosa IFO 3455. The following applies: Pseudomonas aeruginosa IFO 3455; medium TSA.
Text: as §1, §2

Assay [13] concerns Staphylococcus aureus 308A—1. The following applies: Staphylococcus aureus 308A—1; medium TSA.
Text: as §1, §2

The subject of assay [14] is Acinetobacter calcoaceticus IFO 13006. The following applies: Acinetobacter calcoaceticus IFO 13006; medium TSA.
Text: as §1, §2

The test system of the next assay is Escherichia coli T-7. The following applies: medium TSA.
Text: as §1, §2

Assay [15] has as its system Staphylococcus aureus 1840. The following applies: Staphylococcus aureus 1840; medium TSA.
Text: as §1, §2

The test system of assay [16] is Streptococcus mitis America. The following applies: Streptococcus mitis America; medium B—TSA.
Text: as §1, §2

In assay [17] the test system is Streptococcus pneumoniae Type I. The following applies: Streptococcus pneumoniae Type I; medium B—TSA.
Text: as §1, §2

In assay [18] the test system is Streptococcus faecium IFO 3128. The following applies: Streptococcus faecium IFO 3128; medium B—TSA.
Text: as §1, §2

The subject of assay [19] is Bordetella bronchiseptica Sagami. The following applies: Bordetella bronchiseptica Sagami; medium B—TSA.
Text: as §1, §2

For assay [20], the system named is Citrobacter freundii IFO 12681. The following applies: Citrobacter freundii IFO 12681; medium TSA.
Text: as §1, §2

The mark [21] stands for this setting: read-out: Minimum inhibitory concentration.

As to `CCN1CCN(C(=O)N[C@@H](C(=O)NC2(OC)CN(S(=O)(=O)O)C2=O)c2ccccc2)C(=O)C1=O` (single isomer, unassigned) [Compound C, Sodium 3-[D(-)-N-(4-ethyl-2,3-dioxo-1-piperazinocarbonyl)phenylglycinamido]-3-methoxy-2-oxoazetidine-1-sulphonate], the MIC in assay [1] (Staphylococcus aureus, FDA209P, medium TSA, read-out: Minimum inhibitory concentration) is 100 µg/mL; in [2] (IFO3849, read-out: Minimum inhibitory concentration) it was 50 µg/mL; in [3] (IFO12648, read-out: Minimum inhibitory concentration), 50 µg/mL; with Escherichia coli O—111, 12.5 µg/mL; in assay [4] (setting [21]), 50 µg/mL; in the assay on Candida albicans TA (setting [21]), greater than 100 µg/mL. The MIC in assay [5] (setting [21]) was 50 µg/mL; in assay [6] (Morganella morganii, IFO3168, read-out: Minimum inhibitory concentration) it was greater than 100 µg/mL; in the assay with Klebsiella pneumoniae DT (Klebsiella pneumoniae, read-out: Minimum inhibitory concentration), 12.5 µg/mL; in assay [7] (setting [21]), 50 µg/mL; in assay [8] (IFO12937, read-out: Minimum inhibitory concentration), greater than 100 µg/mL; in [9] (Proteus vulgaris, IFO3988, read-out: Minimum inhibitory concentration), 12.5 µg/mL. Besides, the MIC in assay [10] (U31, read-out: Minimum inhibitory concentration) is greater than 100 µg/mL; in assay [11] (setting [21]), 50 µg/mL.
For the molecule `O=C(NC1CN(S(=O)(=O)[O-])C1=O)C(NC(=O)N1CCN(N=Cc2ccco2)C1=O)c1cccs1.[Na+]` (stereo not drawn) [Compound L, Sodium 3-[2-[(2-oxo-3-furfurylideneaminoimidazolidin-1-yl)-carboxamido]-2-thienylacetamido]-2-oxoazetidine-1-sulphonate], the Minimum inhibitory concentration was 3.13 µg/mL in [12]; 6.25 µg/mL in [1] (medium B—TSA); 6.25 µg/mL in assay [1] (medium TSA); 3.13 µg/mL in assay [13]; 0.78 µg/mL in [2]; 50 µg/mL in assay [14]. The Minimum inhibitory concentration was 1.56 µg/mL in [3]; less than 0.1 µg/mL in the assay with Escherichia coli O—111; 0.78 µg/mL in [4]; greater than 100 µg/mL in the assay with Escherichia coli T-7; greater than 100 µg/mL in the assay on Candida albicans TA; 25 µg/mL in [15]. Also, the Minimum inhibitory concentration in [5] is 1.56 µg/mL; in assay [6], 12.5 µg/mL; in assay [16] it was 6.25 µg/mL; with Klebsiella pneumoniae DT it was less than 0.1 µg/mL; in assay [17], 1.56 µg/mL; in assay [7] it was 1.56 µg/mL. Besides, the Minimum inhibitory concentration in assay [8] is 25 µg/mL; in assay [18], greater than 100 µg/mL; in assay [19] it was greater than 100 µg/mL; in [9], 0.2 µg/mL; in assay [10], greater than 100 µg/mL; in [20], 1.56 µg/mL. Further, the Minimum inhibitory concentration in assay [11] was found to be 0.78 µg/mL.
In the case of `CCCCCCCCN1CCN(C(=O)NC(C(=O)NC2CN(S(=O)(=O)[O-])C2=O)c2cccs2)C(=O)C1=O.[Na+]` (stereo not drawn) [Compound J, Sodium 3-[2-(4-n-octyl-2,3-dioxo-1-piperazinocarboxamido)-2-thienylacetamido]-2-oxoazetidine-1-sulphonate], the Minimum inhibitory concentration is 6.25 µg/mL in [12]; 3.13 µg/mL in assay [1] (medium B—TSA); 1.56 µg/mL in [1] (medium TSA); 1.56 µg/mL in assay [13]; 3.13 µg/mL in assay [2]; 6.25 µg/mL in [14]. Moreover, the Minimum inhibitory concentration in assay [3] was 1.56 µg/mL; in assay [4] it was 1.56 µg/mL; in the assay on Escherichia coli T-7, greater than 100 µg/mL; with Candida albicans TA, greater than 100 µg/mL; in assay [15] it was 6.25 µg/mL; in [5], 3.13 µg/mL. In addition, the Minimum inhibitory concentration in assay [6] came to 1.56 µg/mL; in assay [16], 25 µg/mL; with Klebsiella pneumoniae DT, 1.56 µg/mL; in assay [17] it was 1.56 µg/mL; in assay [7], 0.78 µg/mL; in assay [8], 6.25 µg/mL. Moreover, the Minimum inhibitory concentration in assay [18] is greater than 100 µg/mL; in assay [19], greater than 100 µg/mL; in assay [9] it was 1.56 µg/mL; in [10], 25 µg/mL; in [20] it was 3.13 µg/mL; in assay [11], 1.56 µg/mL.
